Entries after “also recorded” stand apart in the source; their conditions may differ. Like-named read-outs stand apart in the source and are kept apart here.
Experiments:
[1] = cited from earlier work
[2] = test system: Gli1-dependent luciferase expression in Shh-LIGHTII cells; settings: cited from earlier work
[3] = Stability towards acidic conditions; assay type: physicochemical; settings: pH approximately 1 (MeOH, 1 M HCl), 1H NMR compared with pure compound
Protocol: Finally, we studied the stability of all newly synthesized compounds towards acidic conditions. Therefore, they were exposed to a pH of approximately 1 (MeOH, 1 M HCl) for 24 h. After evaporation of all volatiles, ^1H NMR spectra were acquired and compared to the initially obtained spectra of the pure compounds. […] This experiment emphasizes the importance of the C-21 methyl group for the stability of exo-cyclopamine derivatives. All synthesized compounds, the number of steps required, and the respective overall yield starting from 3 or 14, as well as their biological activity and stability under acidic conditions are summarized in Table 1.

[4] = test system: Gli1-dependent luciferase expression in Shh-LIGHTII cells; assay: Gli1-reporter gene assay (luciferase) in Shh-LIGHTII cells; assay type: cell-based, mouse; settings: for IC50: Mus musculus, Shh Light II, 48 h, read-out: Potency in Gli-assay (IC50); for Activity in Gli1-dependent luciferase assay (in words): concentration range 0.01 μM to 10 μM
Protocol: Next, we examined all synthesized compounds for their ability to inhibit the Gli1-dependent luciferase expression in Shh-LIGHTII cells, a clonal mouse fibroblast cell line which stably incorporates a Gli-dependent firefly luciferase reporter and a constitutive Renilla luciferase reporter. The compounds were tested in a concentration range from 0.01 μM to 10 μM.
Data were obtained from three independent experiments and represent the mean ± standard deviation.
The interference of the exo-cyclopamine derivatives with the hedgehog signaling pathway was tested in an established reporter gene assay based on the inhibition of the target gene Gli1. Shh-LIGHTII cells (ATCC CRL-2795, LGC, Wesel, Germany) represent a clonal mouse fibroblast cell line (NIH 3T3), which stably incorporates a Gli-dependent firefly luciferase reporter and a constitutive Renilla luciferase reporter. They were grown in […] cell culture flasks at 37 °C in a humid atmosphere with 5% CO2. Cell growth medium […] (Dulbecco's Modified Eagle's Medium, high glucose, sodium pyruvate, w/o glutamine), ZeocinTM Selection Reagent and Geneticin® Selection Antibiotic (G418 sulfate) were obtained from Invitrogen. Additive L-glutamin and trypsin were obtained from PAA. VerseneTM chelating agent was obtained from Gibco, bovine fetal serum (FBS) from Sigma. The cell freeze medium contained 5% DMSO in complete growth medium. The cell number was counted using a Neubauer-Zählkammer (Hemocytometer).
(§1) […] (high glucose, sodium pyruvate, w/o glutamine) supplemented with 0.5% FBS, 4 mM L-glutamin and 50 mM HEPES buffer (4-(2-hydroxyethyl)-1-piperazine ethanesulfonic acid) (pH 7.4) was used as incubation medium. The measurement of reporter gene and constitutive Renilla luminescence was performed with the Dual Luciferase® reporter system according to the manufacturer’s instructions (Promega, Mannheim, Germany) using a GENios reader (TECAN, Crailsheim, Germany).
Luciferase reporter assay.
For performing the assay, Shh-LIGHTII cells were grown to reach 80% confluence, washed twice with Versene, detached with 2 mL trypsin for not longer than 2 min and resuspended in 8 mL of growth medium. After centrifugation for 3 min, the supernatant was removed and the cell pellet dissolved in approximately 10 mL of growth medium. Finally, 20,000 to 100,000 cells per well were cultured in a 24-well plate for 48 h. For exposure to the derivatives the growth medium was removed and the cells were exposed to the compound in 500 μL/well incubation medium for 48 h. Stock solutions were prepared in EtOH and introduced in different concentrations into the incubation medium to reach a final solvent concentration of 0.05%. Due to the assay principle, Shh-LIGHTII cells had to be co-exposed to 100 nM of SAG (Smoothened agonist) for determining the inhibitory activity of the compounds. A SAG stock solution was prepared in EtOH and introduced into the medium. The final EtOH concentration – introduced by SAG and the test compound – was 0.1%. As a positive control a 100 nM SAG solution in incubation medium (0.1% EtOH) was used, negative controls were treated with EtOH […]
Performing the luciferase measurement.
After 48 h of incubation cells were washed with 500 μL PBS (phosphate buffered saline, w Mg/Ca, Invitrogen) and afterwards incubated for 15 min with 100 μL 1 x passive lysis buffer on a shaker. The lysed cells together with lysis solution were transferred into 1.5 mL reaction tubes, centrifuged for 1 min at 4 °C and kept on ice until further use. At first, the blank of luminescence of a 96-well plate (flat bottom, white, Greiner bio-one) was recorded. Then, 100 μL luciferase assay reagent and 10 μL cell supernatant were mixed per well and the luminescence of firefly luciferase was recorded. Addition of 100 μL Stop&Glo® reagent permitted the recording

Shh-LIGHTII cells = assay: Cytotoxicity observed in the reporter gene assay; assay type: cell-based, mouse; settings: in the concentration range tested (0.01 μM to 10 μM)
Protocol: Given the negative test results of compounds 8 and 9 it becomes evident that the F-ring is necessary for bioactivity. The piperidine moiety provides a rather rigidly placed nitrogen atom. Nevertheless, a pyrrolidine as in compound 23 still provides the correct orientation of the nitrogen atom.
The interference of the exo-cyclopamine derivatives with the hedgehog signaling pathway was tested in an established reporter gene assay based on the inhibition of the target gene Gli1. […] The cell number was counted using a Neubauer-Zählkammer (Hemocytometer).
as §1, with “Germany). […]” for “Germany).”
After 48 h of incubation cells were washed with 500 μL PBS (phosphate buffered saline, w Mg/Ca, Invitrogen) and afterwards incubated for 15 min with 100 μL 1 x passive lysis buffer on a shaker. […] At first, the blank of luminescence of a 96-well plate (flat bottom, white, Greiner bio-one) was recorded. […]

[5] = read-out: Potency in Gli-assay, previously synthesized and biologically evaluated
[6] = Shh-LIGHTII cells, co-exposed to 100 nM SAG, tested 0.01 μM to 10 μM, mean ± standard deviation of three independent experiments

| Compound | Stability towards acid (pH ~1, 24 h) [3] | IC50 [4, 6] [µM] | Activity in Gli1-dependent luciferase assay (in words) [4] | also measured |
| --- | --- | --- | --- | --- |
| CC1=C2C[C@H]3[C@@H](CC=C4C[C@@H](O)CC[C@@]43C)[C@@H]2CC[C@]12O[C@@H]1C[C@H](C)CN[C@H]1[C@H]2C [Compound 1, cyclopamine] | – | – | – | pH at which decomposition occurs ([1]; low metabolic stability (decomposition)): < 3; Stability towards acid (pH ~1, 24 h) ([1]; previously synthesized and evaluated compounds): decomp.; IC50 ([2]; read-out: Potency (IC50) as inhibitor of hedgehog signaling, introductory statement, no assay details printed): ~5 µM; IC50 [2, 5]: 5 µM |
| C=C1[C@@H]2C[C@H]3[C@@H](CC=C4C[C@@H](O)CC[C@@]43C)[C@@H]2CC[C@]12O[C@@H]1C[C@H](C)CN[C@H]1[C@H]2C [Compound 2, exo-cyclopamine] | – | – | – | IC50 [2, 5]: 0.5 µM |
| C=C1C2CC3C(CC=C4CC(O)CCC43C)C2CCC12OC1CC(C)CNC1C2C (stereo not drawn) [Compound 5, 25-epi-exo-cyclopamine] | remained unchanged; also recorded: stable | 3.29 ± 0.31 | – | – |
| C=C1CNC2C(C1)OC1(CCC3C(CC4C3CC=C3CC(O)CCC34C)C1=C)C2C (stereo not drawn) [Compound 6, bis-exo-cyclopamine] | – | 0.2 ± 0.01 | – | Potency relative to parent compound (cyclopamine) ([4]; surpasses potency of parent compound): 25 fold |
| C=C1[C@@H]2C[C@H]3[C@@H](CC=C4C[C@@H](O)CC[C@@]43C)[C@@H]2CC[C@]12OC[C@@H](NCC)[C@H]2C [Compound 8] | remained unchanged; also recorded: stable | > 10 | no activity | Cytotoxicity (Shh-LIGHTII cells): induced cytotoxicity |
| C=C1[C@@H]2C[C@H]3[C@@H](CC=C4C[C@@H](O)CC[C@@]43C)[C@@H]2CC[C@]12OC[C@@H](N)[C@H]2C [Compound 9] | remained unchanged; also recorded: stable | > 10 | no activity | Cytotoxicity (Shh-LIGHTII cells): induced cytotoxicity |
| C=C1CN[C@H]2C[C@@]3(CC[C@H]4[C@@H]5CC=C6C[C@@H](O)CC[C@]6(C)[C@H]5C[C@H]4C3=C)O[C@@H]2C1 [Compound 19, 20-demethyl-bis-exo-cyclopamine] | showed decomposition; also recorded: decomp | – | no activity; also recorded: completely inactive | IC50 [4]: > 10 µM |
| C=C1C2CC3C(CC=C4CC(O)CCC43C)C2CCC12CC1NCCC1O2 (stereo not drawn) [Compound 23, F-nor-20,25-bis-demethyl-exo-cyclopamine] | showed decomposition; also recorded: decomp | 6.4 ± 0.9 | – | – |
